The values that follow come from patent US8927717B1, “Thiochromeno[2,3-c]quinolin-12-one derivatives, preparation method and application thereof” (National Defense Medical Center, priority 2014, dated 2015).

A value given as a limit tells only on which side of the number the result lay.

In one data set the test system is 60 cancer cell lines. Nature of the data set: NCI 60-cell screen, SRB, whole panel (mean, delta, range). Conditions: 10^−5 molar, 48 hours, SRB; for Growth percent, Delta: delta over the cell panel; for Growth percent, Range: range over the cell panel. In kind it is cell-based.
Another data set concerns HOP-62. Type of data set: cell-based. As to conditions: Non-small cell lung cancer; 10^−5 molar; 48 hours; SRB.

Consider `O=C(O)c1c(Sc2ccc(Cl)cc2)c(O)nc2ccccc12` [Compound 2, 3-((4-Chlorophenyl)thio)-2-hydroxyquinoline-4-carboxylic acid], for which the melting point was 306 to 308 °C. For the same compound, in the data set with 60 cancer cell lines, the “Growth percent, Delta” value came to 33.20% and the “Growth percent, Range” value was found to be 55.29%.

`O=c1c2cc(Cl)ccc2sc2c(O)nc3ccccc3c12` [Compound 4, 10-Chloro-6-hydroxy-12H-thiochromeno[2,3-c]quinolin-12-one] yielded a melting point of more than 410 °C. Moreover, in the data set on 60 cancer cell lines, the “Growth percent, Delta” value turned out to be 30.54% and the “Growth percent, Range” value turned out to be 50.31%. Consider `COc1nc2ccccc2c2c(=O)c3cc(Cl)ccc3sc12` [Compound 5, 10-Chloro-6-methoxy-12H-thiochromeno[2,3-c]quinolin-12-one], for which the melting point was in the range of 227 to 228 °C. Moreover, the “Growth percent HOP-62” value in the data set on HOP-62 came out at 96.64%. Besides, in the data set with 60 cancer cell lines, the “Growth percent, Delta” value was 39.82% and the “Growth percent, Range” value is 61.02%. `CN(C)c1nc2ccccc2c2c(=O)c3cc(Cl)ccc3sc12` [Compound 6, 10-Chloro-6-dimethylamino-12H-thiochromeno[2,3-c]quinolin-12-one] yielded a melting point of 194 to 195 °C. For the same compound, in the data set on 60 cancer cell lines, the “Growth percent, Delta” value is 65.30% and the “Growth percent, Range” value worked out at 93.93%.

Compound `CN1CCN(c2nc3ccccc3c3c(=O)c4cc(Cl)ccc4sc23)CC1` [Compound 8, 10-Chloro-6-(4-methylpiperazin-1-yl)-12H-thiochromeno[2,3-c]quinolin-12-one] showed a melting point of 212 to 214 °C. Moreover, in the data set with 60 cancer cell lines, the “Growth percent, Delta” value is listed as 68.64% and the “Growth percent, Range” value came out at 92.74%.

`CCN1CCN(c2nc3ccccc3c3c(=O)c4cc(Cl)ccc4sc23)CC1` [Compound 9, 10-Chloro-6-(4-ethylpiperazin-1-yl)-12H-thiochromeno[2,3-c]quinolin-12-one]: the melting point fell in the range of 196 to 198 °C. In turn, `O=c1c2cc(Cl)ccc2sc2c(N3CCN(CCO)CC3)nc3ccccc3c12` [Compound 10, 10-Chloro-6-(4-(2-hydroxyethyl)piperazin-1-yl)-12H-thiochromeno[2,3-c]quinolin-12one] came in with a melting point of 211 to 213 °C. Further, in the data set on 60 cancer cell lines, the “Growth percent, Delta” value came to 48.59% and the “Growth percent, Range” value is given as 83.73%. The corresponding values for `O=c1c2cc(Cl)ccc2sc2c(N3CCN(c4ccccc4)CC3)nc3ccccc3c12` [Compound 12, 10-Chloro-6-(4-phenylpiperazin-1-yl)-12H-thiochromeno[2,3-c]quinolin-12-one] are 236 to 237 °C, 35.45% and 60.10%.

`O=c1c2cc(Cl)ccc2sc2c(N3CCOCC3)nc3ccccc3c12` [Compound 13, 10-Chloro-6-morpholino-12H-thiochromeno[2,3-c]quinolin-12-one] came in with a melting point of 217 to 218 °C. For the same compound, in the data set on 60 cancer cell lines, the “Growth percent, Delta” value worked out at 50.85% and the “Growth percent, Range” value is listed as 79.17%.

`O=c1c2cc(Cl)ccc2sc2c(N3CCSCC3)nc3ccccc3c12` [Compound 14, 10-Chloro-6-thiomorpholino-12H-thiochromeno[2,3-c]quinolin-12-one] registered a melting point of 219 to 220 °C. Compound `O=c1c2cc(Cl)ccc2sc2c(N3CCCCC3)nc3ccccc3c12` [Compound 15, 10-Chloro-6-(piperidin-1-yl)-12H-thiochromeno[2,3-c]quinolin-12-one] came in with a melting point of 187 to 188 °C. The compound `O=c1c2cc(Cl)ccc2sc2c(N3CCC(O)CC3)nc3ccccc3c12` [Compound 16, 10-Chloro-6-(4-hydroxypiperidin-1-yl)-12H-thiochromeno[2,3-c]quinolin-12-one] had a melting point of 224 to 225 °C.

Compound `O=c1c2cc(Cl)ccc2sc2c(N3CCC(Cc4ccccc4)CC3)nc3ccccc3c12` [Compound 17, 6-(4-Benzylpiperidin-1-yl)-10-chloro-12H-thiochromeno[2,3-c]quinolin-12-one] had a melting point of 184 to 185 °C.

For the compound `O=c1c2cc(Cl)ccc2sc2c(N3CCC(N4CCCCC4)CC3)nc3ccccc3c12` [Compound 18, 6-([1,4′-Bipiperidin]-1′-yl)-10-chloro-12H-thiochromeno[2,3-c]quinolin-12-one], the melting point is 187 to 189 °C. Consider `O=c1c2cc(Cl)ccc2sc2c(N3CCC(CCCC4CCNCC4)CC3)nc3ccccc3c12` [Compound 19, 10-Chloro-6-(4-(3-(piperidin-4-yl)propyl)piperidin-1-yl)-12H-thiochromeno[2,3-c]quinolin-12-one], for which the melting point lay within 164 to 165 °C. Same read-out and setting: to `O=c1c2cc(Cl)ccc2sc2c(N3CCCC3)nc3ccccc3c12` [Compound 20, 10-Chloro-6-(pyrrolidin-1-yl)-12H-thiochromeno[2,3-c]quinolin-12-one] belongs 170 to 171 °C. `O=C1CCCCN1c1nc2ccccc2c2c(=O)c3cc(Cl)ccc3sc12` [Compound 21, 10-chloro-6-(2-oxopiperidin-1-yl)-12H-thiochromeno[2,3-c]quinolin-12-one] gave a melting point of 258 to 261 °C.

In turn, `CCCNc1nc2ccccc2c2c(=O)c3cc(Cl)ccc3sc12` [Compound N3, 10-Chloro-6-propylamino-12H-thiochromeno[2,3-c]quinolin-12-one] registered a melting point of 178 to 179 °C. As for `CCCCNc1nc2ccccc2c2c(=O)c3cc(Cl)ccc3sc12` [Compound N4, 6-(Butylamino)-10-chloro-12H-thiochromeno[2,3-c]quinolin-12-one], the melting point lay within 147 to 149 °C. Regarding `CC(C)CNc1nc2ccccc2c2c(=O)c3cc(Cl)ccc3sc12` [Compound N5, 10-Chloro-6-isobutylamino-12H-thiochromeno[2,3-c]quinolin-12-one], the melting point lay in the range of 159 to 160 °C. Still for that read-out and setting: the figure for `O=c1c2cc(Cl)ccc2sc2c(NC3Cc4ccccc4C3)nc3ccccc3c12` [Compound N20, 10-Chloro-6-((2,3-dihydro-1H-inden-2-yl)amino)-12H-thiochromeno[2,3-c]quinolin-12-one] is 251 to 252 °C; for `O=c1c2cc(Cl)ccc2sc2c(NC3CCN(Cc4ccccc4)CC3)nc3ccccc3c12` [Compound N22, 6-((1-Benzylpiperidin-4-yl)amino)-10-chloro-12H-thiochromeno[2,3-c]quinolin-12-one] it is 194 to 196 °C. The same measure, in the same setting: to `O=c1c2cc(Cl)ccc2sc2c(NCc3cccs3)nc3ccccc3c12` [Compound N23, 10-Chloro-6-((thiophen-2-ylmethyl)amino)-12H-thiochromeno[2,3-c]quinolin-12-one] belongs 178 to 180 °C; to `O=c1c2cc(Cl)ccc2sc2c(NCC3CCCCC3)nc3ccccc3c12` [Compound N24, 10-Chloro-6-((cyclohexylmethyl)amino)-12H-thiochromeno[2,3-c]quinolin-12-one], 165 to 166 °C. The compound `O=c1c2cc(Cl)ccc2sc2c(NCc3ccccn3)nc3ccccc3c12` [Compound N26, 10-Chloro-6-((pyridin-2-ylmethyl)amino)-12H-thiochromeno[2,3-c]quinolin-12-one] had a melting point of 187 to 189 °C. `COc1ccccc1CNc1nc2ccccc2c2c(=O)c3cc(Cl)ccc3sc12` [Compound N28, 10-Chloro-6-((2-methoxybenzyl)amino)-12H-thiochromeno[2,3-c]quinolin-12-one] showed a melting point of 223 to 224 °C. Same read-out and setting: to `COc1ccc(CNc2nc3ccccc3c3c(=O)c4cc(Cl)ccc4sc23)cc1OC` [Compound N29, 10-Chloro-6-((3,4-dimethoxybenzyl)amino)-12H-thiochromeno[2,3-c]quinolin-12-one] belongs 251 to 252 °C; to `NC(N)=Nc1nc2ccccc2c2c(=O)c3cc(Cl)ccc3sc12` [Compound N33, 2-(10-Chloro-12-oxo-12H-thiochromeno[2,3-c]quinolin-6-yl)guanidine], 370 °C (dec.); to `O=c1c2cc(Cl)ccc2sc2c(NN3CCCCC3)nc3ccccc3c12` [Compound N34, 10-Chloro-6-(piperidin-1-ylamino)-12H-thiochromeno[2,3-c]quinolin-12-one], 180 to 181 °C.

In general, melting point refers to the temperature, or range, at which the solid turns liquid.
